Values joined by “and” are separate entries in the source; they are usually repeats but may differ in a detail not shown here. Equal values may be shown once. Read-outs that look alike come from different tables or passages of the source. Blank lines part the entries; values can stand above or below the molecule they belong to.
How the values were obtained:
Assay type in all cases: physicochemical
[1] = Solubility of processing compounds (stated in the description)
[2] = Keeping test of continuously aerated developers with limited-solubility antioxidants, analysed for CD3 content (Example 2); details: about 0.029 molar antioxidant added, developer pH 10.05; rest solid swirling in solution
Method: The compounds CSD and MCH were compared with diethyl hydroxylamine at equimolar levels in a developer of the composition shown in Table 2.
The antioxidant level was equivalent to 3.0 ml/l diethyl hydroxylamine (85%); which is about 0.029 molar. The three developers were as follows;
These developers were placed in 500 ml measuring cylinders and stirred continuously with magnetic stirrers to create a vortex depth of about 5 mm in each case in order to ensure continuous aeration.

[3] = Equilibrium level of MCH in circulated potassium carbonate solution on dilution or evaporation (Example 1); details: potassium carbonate pH 10.5
Method: A circulation system of about 500 ml capacity was set up in which solid N-monocyclohexyl hydroxylamine (MCH) was retained behind a removable filter paper filter. The solution circulated was potassium carbonate at pH=10.5. The solution was left to circulate for 30 minutes and the amount of MCH in solution was determined by removing the paper filter that retained the MCH, drying and weighing it. […] The volume was increased by increments of 10%. In a second part of the experiment most of the solution was removed from the system and evaporated to reduce its volume, again in increments of 10%. Solid MCH came out of solution and was collected on the filter and weighed as before.

Structure (SMILES): CCN(O)CC [Diethyl hydroxylamine, reference compound]
solubility in water [1]: essentially miscible in all proportions with water
share of the antioxidant in solution in the developer [2]: completely in solution

Structure (SMILES): CCCNc1nc(NO)nc(NO)n1 [CSD, 4,5-dihydroxylamino-2-propylamino-1,3,5-triazine]
solubility [1]: 500 µg/mL to 1000 µg/mL and ~5000 µM

Structure (SMILES): ONC1CCCCC1 [MCH, Mono-N-cyclohexylhydroxylamine]
solubility ([1]; aqueous buffer, at developer pH (10.0)): 3900 µg/mL to 4000 µg/mL and ~26000 µM
time for the MCH level to adjust itself to the initial level after dilution or evaporation [3]: ≤ 30 min
MCH in Solution ([3]; volume 70 % relative to initial (evaporation)): 4.03 g/L
MCH in Solution ([3]; volume 80 % relative to initial (evaporation)): 3.92 g/L
MCH in Solution ([3]; volume 90 % relative to initial (evaporation)): 3.88 g/L
MCH in Solution ([3]; volume 100 % relative to initial, 30 minutes): 3.80 g/1
MCH in Solution ([3]; volume 110 % relative to initial, 30 minutes): 3.81 g/L
MCH in Solution ([3]; volume 120 % relative to initial, 30 minutes): 3.87 g/L
MCH in Solution ([3]; volume 130 % relative to initial, 30 minutes): 4.11 g/L
MCH in Solution ([3]; volume 140 % relative to initial, 30 minutes): 4.05 g/L
MCH in Solution ([3]; volume 150 % relative to initial, 30 minutes): 3.96 g/L
share of the antioxidant in solution in the developer [2]: About 90%

More lines, now with the values ahead:

solubility in water [1]: too soluble
Structure (SMILES): CC(C)(C)NO [mono-t-butyl-hydroxylamine, reference compound]

solubility in water [1]: almost entirely insoluble in water
Structure (SMILES): ON(Cc1ccccc1)Cc1ccccc1 [dibenzyl-hydroxylamine, reference compound]

Source: patent publication US6541191B2, “Photographic processing solutions” (Eastman Kodak Company, priority 1996, dated 2003)
